These results are taken from patent publication US20250326771A1, “PIPERAZINE DERIVATIVES USEFUL IN HIV THERAPY” (VIIV HEALTHCARE COMPANY, priority 2022, published 2025).

SMILES strings stand for the structures. pIC50: −log10 of the molar value.

One assay addresses cIAP2-BIR3 (Homo sapiens (Human), UniProt Q13489). In words: BIR binding assay (FRET competition), cIAP2 BIR3. Particulars: for cIAP2 BIR3 vs BIR2 separation window: fold separation (FS) for cIAP2.
The target in a further assay is XIAP-BIR3 (Homo sapiens (Human), UniProt P98170). In words: BIR binding assay (FRET competition), XIAP BIR3. The gist of the method:
(§1)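 His-tagged domains (50 nM cIAP1-BIR3, 325 nM cIAP2-BIR2, 325 nM cIAP1-BIR2, 100 nM XIAP-BIR3) compete with compounds for a 200 nM AlexaFluor647-labelled SMAC/DIABLO peptide in HEPES buffer, pH 7.4, for 60 min. Then 2 nM Eu-W1024 is added for 30 min. The 615/665 nm ratio is fit by four-parameter fit to give IC50.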

The target in another assay is cIAP1-BIR3 (Homo sapiens (Human), UniProt Q13490). In words: BIR binding assay (FRET competition), cIAP1 BIR3. The note with it: for cIAP1 BIR3 vs BIR2 separation window: fold separation (FS) for cIAP1. The gist of the method: as §1
Chain of cIAP1-BIR3 (Q13490 253-363): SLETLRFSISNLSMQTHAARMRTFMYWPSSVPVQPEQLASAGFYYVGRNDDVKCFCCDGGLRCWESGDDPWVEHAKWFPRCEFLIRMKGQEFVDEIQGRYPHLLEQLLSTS
The target of the next assay is cIAP1-BIR2 (Homo sapiens (Human), UniProt Q13490). In words: BIR binding assay (FRET competition), cIAP1 BIR2. Summed up: as §1
Chain of cIAP1-BIR2 (Q13490 173-257): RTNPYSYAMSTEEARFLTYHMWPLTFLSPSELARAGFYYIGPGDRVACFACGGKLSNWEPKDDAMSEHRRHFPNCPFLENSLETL
Assay [1] concerns Jurkat HIV-luciferase clones. In words: Jurkat latency reversal assay. Format: cell-based. Particulars: Homo sapiens, 48 h; Jurkat latency reversal assay potency; read-out: Jurkat pEC50 (converted). The gist of the method:
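Luminescence read-out: Steady-Glo after 48 h, 37° C, on mixed Jurkat HIV-luc clones (C16, 115, N6; 5,000 cells/well total). Cpd 14-pt 3-fold dilutions, duplicate, top 10 μM, 0.5% DMSO. EC50 + max % activation vs vehicle via 4-parameter fit.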

In the next assay the target is cIAP2-BIR2 (Homo sapiens (Human), UniProt Q13489). In words: BIR binding assay (FRET competition), cIAP2 BIR2. As to the method:
The BIR domain binding assays are FRET based competition assays that utilize His-tagged versions of each of the BIR2 and BIR3 domains from cIAP1, cIAP2, and XIAP (each domain assayed separately) each at a custom optimal concentration and a probe, 200 nM SMAC/DIABLO peptide […] labelled with AlexaFluor647 (part #crb 1110326h, Discovery Peptides). The assay is conducted in 50 mM HEPES, […], 1 mM CHAPS, 5% Glycerol, 1 mM DTT, in dI water with a final pH of 7.4 and final volume of 20 uL. Final protein domain concentrations are: 50 nM cIAP1-BIR3 (Part #APT-11-370 Reaction Biology), 100 nM XIAP-BIR3 (Part #APT-11-351 Reaction Biology), 200 nM XIAP-BIR2 (Part #APT-11-470 Reaction Biology), 325 nM cIAP2-BIR2 (Part #APT-11-489 Reaction Biology), 50 nM cIAP2-BIR3 (Part #APT-11-372 Reaction Biology), 325 nM cIAP1-BIR2 (Part #APT-11-487 Reaction Biology). Compounds were plated using a HP Tecan D300 printer in a final total volume of 202 nl and DMSO concentration normalized across the 15-point, 3-fold dilution series. Peptide and probe were prepared at 2× relative to the concentrations above in binding buffer, 10 uL added to the prepared compound plates, and incubated for 60 minutes. LANCE Eu-W1024 (part #AD0401 Perkin Elmer #, vendor) was prepared at 2× concentration in binding buffer for final concentration of 2 nM, 10 uL added to each well, and plates incubated for 30 minutes. Plates were read on an ENVISION multifunction plate reader with […] laser excitation to obtain the 615 nm/665 nm emission ratio as indicative of probe:protein proximity. Data was analyzed using GraphPad PRISM and curves fit using log(inhibitor) vs. response—Variable slope (four […] method to obtain IC50 and pIC50 values.

For orientation: pIC50 means the IC50 on a negative log10 scale, so that one unit is a factor of ten. Higher therefore signals a low IC50.

Chain of cIAP2-BIR3 (Q13489 238-349): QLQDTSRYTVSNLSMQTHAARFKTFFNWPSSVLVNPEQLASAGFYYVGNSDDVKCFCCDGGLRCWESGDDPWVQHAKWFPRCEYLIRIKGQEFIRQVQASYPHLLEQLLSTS
Chain of XIAP-BIR3 (P98170 241-356): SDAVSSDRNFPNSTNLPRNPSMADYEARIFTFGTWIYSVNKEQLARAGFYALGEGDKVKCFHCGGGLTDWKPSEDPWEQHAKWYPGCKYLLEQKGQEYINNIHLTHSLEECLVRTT
Chain of cIAP2-BIR2 (Q13489 158-242): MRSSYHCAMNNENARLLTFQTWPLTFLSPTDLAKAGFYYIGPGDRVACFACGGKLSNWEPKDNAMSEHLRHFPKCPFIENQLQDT

In the case of `C[C@@H]1CN(CC(=O)N2CC(C)(C)c3[nH]c(=O)c(Cc4c(F)cc(F)cc4F)cc32)[C@@H](CN2CCO[C@H](COc3cccc(OC[C@@H]4CN(C[C@H]5CN[C@H](C)CN5CC(=O)N5CC(C)(C)c6[nH]c(=O)c(Cc7c(F)cc(F)cc7F)cc65)CCO4)c3)C2)CN1` [Compound 188], the pIC50 at cIAP2-BIR3 was 7.50 to 7.80; at XIAP-BIR3 it was 7.50 to 7.80; on cIAP1-BIR3, 7.50 to 7.80; at cIAP1-BIR2, 5.50 to 6.00; at cIAP2-BIR2 it was 5.50 to 6.00. Also, the “cIAP2 BIR3 vs BIR2 separation window” value on cIAP2-BIR3 is on record as “++ (1,000>FS>100)”. On cIAP1-BIR3, the “cIAP1 BIR3 vs BIR2 separation window” value was “+++ (10,000>FS>1,000)”. In addition, the EC50 in assay [1] is 0.49 to 12.6 nM.

As to `C[C@@H]1CN(CC(=O)N2CC(C)(C)c3[nH]c(=O)c(Cc4ccc(Cl)cc4C#N)cc32)[C@@H](CN2CCO[C@H](COc3cccc(OC[C@@H]4CN(C[C@H]5CN[C@H](C)CN5CC(=O)N5CC(C)(C)c6[nH]c(=O)c(Cc7ccc(Cl)cc7C#N)cc65)CCO4)c3)C2)CN1` [Compound 189], the pIC50 at cIAP2-BIR3 was 7.50 to 7.80; on XIAP-BIR3 it was 6.30 to 7.50; at cIAP1-BIR3 it was 7.50 to 7.80; at cIAP1-BIR2, 5.50 to 6.00; at cIAP2-BIR2 it was 5.00 to 5.50. Also, on cIAP2-BIR3, the “cIAP2 BIR3 vs BIR2 separation window” value is on record as “+++ (10,000>FS>1,000)”. Also, on cIAP1-BIR3, the “cIAP1 BIR3 vs BIR2 separation window” value is given as “+++ (10,000>FS>1,000)”. Further, the EC50 in assay [1] was 0.49 to 12.6 nM.

With `C[C@@H]1CN(CC(=O)N2CC(C)(C)c3[nH]c(=O)c(Cc4ccc(F)cc4)cc32)[C@@H](CN2CCN(C(=O)COc3ccc(OCC(=O)N4CCN(C[C@H]5CN[C@H](C)CN5CC(=O)N5CC(C)(C)c6[nH]c(=O)c(Cc7ccc(F)cc7)cc65)[C@H](C)C4)cc3)C[C@H]2C)CN1` [Example 13, 1,1′-(2,2′-((3R,3′R,6R,6′R)-(((2R,2′R)-(2,2′-(1,4-phenylenebis(oxy))bis(acetyl))bis(2-methylpiperazine-4,1-diyl))bis(methylene))bis(3-methylpiperazine-6,1-diyl))bis(acetyl))bis(6-(4-fluorobenzyl)-3,3-dimethyl-1,2,3,4-tetrahydro-5H-pyrrolo[3,2-b]pyridin-5-one)], the pIC50 is 7.50 to 7.80 at cIAP2-BIR3; 7.50 to 7.80 at XIAP-BIR3; 7.50 to 7.80 at cIAP1-BIR3; 6.00 to 7.65 at cIAP1-BIR2; 5.50 to 6.00 at cIAP2-BIR2. Besides, the EC50 in assay [1] is 63.1 to 316 nM.

As to `C[C@@H]1CN(CC(=O)N2CC(C)(C)c3[nH]c(=O)c(Cc4ccc(F)cc4)cc32)[C@@H](CN2CCN(C(=O)/C=C/c3ccc(/C=C/C(=O)N4CCN(C[C@H]5CN[C@H](C)CN5CC(=O)N5CC(C)(C)c6[nH]c(=O)c(Cc7ccc(F)cc7)cc65)[C@H](C)C4)cc3)C[C@H]2C)CN1` [Example 14, 1,1′-(2,2′-((3R,3′R,6R,6′R)-(((2R,2′R)-((2E,2′E)-3,3′-(1,4-phenylene)bis(acryloyl))bis(2-methylpiperazine-4,1-diyl))bis(methylene))bis(3-methylpiperazine-6,1-diyl))bis(acetyl))bis(6-(4-fluorobenzyl)-3,3-dimethyl-1,2,3,4-tetrahydro-5H-pyrrolo[3,2-b]pyridin-5-one)], the negative-log IC50 (pIC50) was 7.50 to 7.80 on cIAP2-BIR3; 7.50 to 7.80 at XIAP-BIR3; 7.50 to 7.80 at cIAP1-BIR3; 6.00 to 7.65 on cIAP1-BIR2; 6.00 to 7.65 on cIAP2-BIR2. The “cIAP2 BIR3 vs BIR2 separation window” value at cIAP2-BIR3 was “++ (1,000>FS>100)”. In addition, the “cIAP1 BIR3 vs BIR2 separation window” value on cIAP1-BIR3 is “++ (1,000>FS>100)”. Moreover, the EC50 in assay [1] is 63.1 to 316 nM.

In the case of `C[C@@H]1CN(CC(=O)N2CC(C)(C)c3[nH]c(=O)c(Cc4ccc(F)cc4)cc32)[C@@H](CN2CCN(C(=O)c3ccc(/C=C/c4ccc(C(=O)N5CCN(C[C@H]6CN[C@H](C)CN6CC(=O)N6CC(C)(C)c7[nH]c(=O)c(Cc8ccc(F)cc8)cc76)[C@H](C)C5)cc4)cc3)C[C@H]2C)CN1` [Example 20, 1,1′-(2,2′-((3R,3′R,6R,6′R)-(((2R,2′R)-(4,4′-((E)-ethene-1,2-diyl)bis(benzoyl))bis(2-methylpiperazine-4,1-diyl))bis(methylene))bis(3-methylpiperazine-6,1-diyl))bis(acetyl))bis(6-(4-fluorobenzyl)-3,3-dimethyl-1,2,3,4-tetrahydro-5H-pyrrolo[3,2-b]pyridin-5-one)], the pIC50 at cIAP2-BIR3 was 7.50 to 7.80; at XIAP-BIR3, 6.30 to 7.50; at cIAP1-BIR3, 7.50 to 7.80; on cIAP1-BIR2, 6.00 to 7.65; on cIAP2-BIR2, 6.00 to 7.65. For the same compound, the “cIAP2 BIR3 vs BIR2 separation window” value on cIAP2-BIR3 is “++ (1,000>FS>100)”. Besides, the “cIAP1 BIR3 vs BIR2 separation window” value on cIAP1-BIR3 is on record as “+ (100>FS>1)”. For the same compound, the EC50 in assay [1] was 12.6 to 63.1 nM.

For `C[C@@H]1CN(CC(=O)N2CC(C)(C)c3[nH]c(=O)c(Cc4ccc(F)cc4)cc32)[C@@H](CN2CCN(CCCCCCCCCCN3CCN(C[C@H]4CN[C@H](C)CN4CC(=O)N4CC(C)(C)c5[nH]c(=O)c(Cc6ccc(F)cc6)cc54)[C@H](C)C3)C[C@H]2C)CN1` [Example 25, 1,1′-(2,2′-((3R,3′R,6R,6′R)-(((2R,2′R)-decane-1,10-diylbis(2-methylpiperazine-4,1-diyl))bis(methylene))bis(3-methylpiperazine-6,1-diyl))bis(acetyl))bis(6-(4-fluorobenzyl)-3,3-dimethyl-1,2,3,4-tetrahydro-5H-pyrrolo[3,2-b]pyridin-5-one)], the pIC50 is 8.10 to 8.86 on cIAP2-BIR3; 7.80 to 8.10 on XIAP-BIR3; 7.80 to 8.10 on cIAP1-BIR3; 6.00 to 7.65 at cIAP1-BIR2; 6.00 to 7.65 on cIAP2-BIR2. For the same compound, the “cIAP2 BIR3 vs BIR2 separation window” value at cIAP2-BIR3 was “+++ (10,000>FS>1,000)”. Besides, the “cIAP1 BIR3 vs BIR2 separation window” value on cIAP1-BIR3 was “++ (1,000>FS>100)”. In addition, the EC50 in assay [1] was 12.6 to 63.1 nM.

On to `C[C@@H]1CN(CC(=O)N2CC(C)(C)c3[nH]c(=O)c(Cc4ccc(F)cc4)cc32)[C@@H](CN2CCN(CCCCCCCCCCCCN3CCN(C[C@H]4CN[C@H](C)CN4CC(=O)N4CC(C)(C)c5[nH]c(=O)c(Cc6ccc(F)cc6)cc54)[C@H](C)C3)C[C@H]2C)CN1` [Example 26, 1,1′-(2,2′-((3R,3′R,6R,6′R)-(((2R,2′R)-dodecane-1,12-diylbis(2-methylpiperazine-4,1-diyl))bis(methylene))bis(3-methylpiperazine-6,1-diyl))bis(acetyl))bis(6-(4-fluorobenzyl)-3,3-dimethyl-1,2,3,4-tetrahydro-5H-pyrrolo[3,2-b]pyridin-5-one)], for which the negative logarithm of the IC50 (pIC50) at cIAP2-BIR3 is 7.80 to 8.10; on XIAP-BIR3, 7.50 to 7.80; on cIAP1-BIR3 it was 6.30 to 7.50; at cIAP1-BIR2, 5.50 to 6.00; at cIAP2-BIR2 it was 5.50 to 6.00. Besides, in assay [1], the EC50 is 12.6 to 63.1 nM.

`C[C@@H]1CN(CC(=O)N2CC(C)(C)c3[nH]c(=O)c(Cc4ccc(F)cc4)cc32)[C@@H](CN2CCC[C@H](NC(=O)CCCCCCCCCCCCC(=O)N[C@H]3CCCN(C[C@H]4CN[C@H](C)CN4CC(=O)N4CC(C)(C)c5[nH]c(=O)c(Cc6ccc(F)cc6)cc54)C3)C2)CN1` [Example 40, N^1,N^14-bis((S)-1-(((2R,5R)-1-(2-(6-(4-fluorobenzyl)-3,3-dimethyl-5-oxo-2,3,4,5-tetrahydro-1H-pyrrolo[3,2-b]pyridin-1-yl)-2-oxoethyl)-5-methylpiperazin-2-yl)methyl)piperidin-3-yl)tetradecanediamide]: the negative logarithm of the IC50 (pIC50) is 7.50 to 7.80 on cIAP2-BIR3; 6.30 to 7.50 on XIAP-BIR3; 7.50 to 7.80 on cIAP1-BIR3; 4.29 to 5.00 at cIAP1-BIR2; 4.29 to 5.00 at cIAP2-BIR2. Besides, the “cIAP2 BIR3 vs BIR2 separation window” value at cIAP2-BIR3 is listed as “+++ (10,000>FS>1,000)”. Besides, at cIAP1-BIR3, the “cIAP1 BIR3 vs BIR2 separation window” value is “+++ (10,000>FS>1,000)”. Also, the EC50 in assay [1] was 63.1 to 316 nM.
